Reference: US20110081428A1, “Use of thioflavin-like compounds to increase life span and/or health span” (priority 2009, published 2011)
Entries after “also recorded” stand apart in the source; their conditions may differ.

How the values were obtained:
wildtype (N2) C. elegans = test: Lifespan assay, wildtype worms; assay type: in vivo
Experimental: Lifespan assays were performed as described previously. (McColl, G. et al. Pharmacogenetic analysis of lithium-induced delayed aging in Caenorhabditis elegans. J Biol Chem 283, 350-357 (2008). Briefly, the nematode growth media (NGM) plates were prepared under sterile conditions. 100 μL of concentrated stocks of each of the compounds used in this study were added onto a previously prepared NGM small plate (3 mL volume) immediately spread over the surface of the plate. The final concentrations quoted in the text assume an even distribution of compound throughout the 3 ml plate. The plates were then placed in a laminar flow hood at room temperature for 30 min and then 60 μL of a concentrated suspension of E. coli OP50 was spotted to form a circular lawn on the center of each plate. […] The first day of adulthood is Day 3 in survival curves. There was between-experiment variation in the magnitude of the lifespan extension observed with ThT which appeared to correlate with different suppliers and batches. ThT concentration should be optimized depending on batch and purity and stability of the compound. […] The optimal range for lifespan extension was between 25 and 75 μM.
Animals were scored as alive, dead or lost every other day. […] Animals that died from causes other than ageing, such as sticking to the plate walls, internal hatching of eggs (“bagging”) or gonadal extrusion were censored as were lost worms. Animals were transferred to fresh plates every 3-6 days. All lifespan experiments were performed at 20° C. unless otherwise stated. Survival curves were plotted and statistical analyses (log-rank test) were performed using the Prism 4 software (Graphpad™ Software, Inc., San Diego, Calif., USA).

DA465 [eat-2(ad465)II] = test: Lifespan assay, eat-2 mutant; assay type: in vivo, Caenorhabditis elegans; settings: 50 μM ThT
Experimental: Lifespan assays were performed as described previously. (McColl, G. et al. Pharmacogenetic analysis of lithium-induced delayed aging in Caenorhabditis elegans. J Biol Chem 283, 350-357 (2008). Briefly, the nematode growth media (NGM) plates were prepared under sterile conditions. 100 μL of concentrated stocks of each of the compounds used in this study were added onto a previously prepared NGM small plate (3 mL volume) immediately spread over the surface of the plate. The final concentrations quoted in the text assume an even distribution of compound throughout the 3 ml plate. The plates were then placed in a laminar flow hood at room temperature for 30 min and then 60 μL of a concentrated suspension of E. coli OP50 was spotted to form a circular lawn on the center of each plate. Thirty late L4 larvae growing at 20° C. were transferred to fresh NGM plates with FUdR (75 μM) in presence or absence of the specified compounds and incubated at 20° C. The first day of adulthood is Day 3 in survival curves. There was between-experiment variation in the magnitude of the lifespan extension observed with ThT which appeared to correlate with different suppliers and batches. ThT concentration should be optimized depending on batch and purity and stability of the compound. […]
Animals were scored as alive, dead or lost every other day. […]

[1] = tested on: HE250 [unc-52(e669su250)II]; test: Worm paralysis assay, unc-52 ts mutant; assay type: in vivo, Caenorhabditis elegans
Experimental: Scoring for paralysis was initiated 2 and 8 days after temperature upshift for CL4176 and AM140, respectively. […] For sensitivity to EtOH or levamisole resistance, CW152 gas-1 (fc21) X and ZZ26 unc-63(x26)I worms were picked into 0.4 M EtOH or 50 μM levamisole, respectively, equilibrated for 5 min, and scored for paralysis as described above. Treated and untreated worms were compared with an unpaired t-test (implemented in Prism 4, Graphpad™ Software, Inc., San Diego, Calif., USA).

[2] = tested on: UNC-54 (paramyosin) in unc-54(e1157)I; test: Paramyosin immunolocalization / sarcomere structure; assay type: in vivo, Caenorhabditis elegans; settings: 50 μM ThT, 24 h at 25° C.
Experimental: For fluorescent microscopy, TJ356 zIs356 IV [daf-16::daf-16-gfp+rol-6] or CF2189 Is001(skn-1::gfp+rol-6) were paralyzed with 1 mM levamisole mounted on 1% agarose pads and imaged using Olympus BX51 (60× objective) and HCImage software (Hamamatsu). For immunofluorescence, N2, […], CB1157 unc-54(e1157) or CL4176 dvIs27 [myo-3::Aβ(3 to 42)-let 3′UTR(pAF29); pRF4 (rol-6(su1006))] worms were treated for 24-36 h with or without 50 μM ThT at 25° C. After this period the worms were collected, rinsed, and fixed in 4% paraformaldehyde overnight. […] Paramyosin and perlecans were detected with primary monoclonal antibodies 5-23 and MH3 (developed by Henry Epstein and Robert H. Waterston and obtained from the Developmental Studies Hybridoma Bank developed under the auspices of the NICHD and maintained by The University of Iowa, Department of Biology, Iowa City, Iowa 52242) and AlexaFluor 633 goat anti-mouse (Molecular Probes) as secondary antibody. Soluble oligomers and Aβ peptide were detected with anti polyclonal All (Invitrogen) and 6E10 monoclonal (Covance) primary antibodies, respectively, with AlexaFluor 568 goat anti-rabbit and AlexaFluor 488 goat anti-mouse (Molecular Probes) as secondary antibodies. Images were processed and quantified by using Image Analyst MK II (Novato, Calif.).

HSP-16.2 = test: Western blot HSP-16.2; assay type: in vivo, Caenorhabditis elegans; settings: 50 μM ThT, 100 μM curcumin, 4 and 7 days of treatment
Experimental: (§1) Peptide corresponding to amino acids 110-145 ([…]; SEQ ID NO:1) of HSP-16.2 was used to commercially synthesize antiserum (Invitrogen). Briefly, KLH-peptide was emulsified by mixing with an equal volume of Freund's adjuvant and injected into three subcutaneous dorsal sites for a total of 0.1 mg of peptide for immunization. The animals (rabbits) were bled, the blood allowed to clot and the serum collected by centrifugation. Monoclonal HSP-70 and Polyclonal HSF-1 primary antibodies were from stressgen (N27F3-4 and SPA-901, respectively).
(§2) Worms were transferred to siliconized eppendorf tubes, washed once in S-basal and frozen in liquid N2. Standard SDS-PAGE was performed using (4-12%) NOVEX gels and IVIES running buffer. Following transfer PVDF (BioRad) membranes were incubated with antisera (1:10000) or primary antibodies (1:1000) diluted in blocking buffer and then with secondary, goat anti-rabbit IgG antibody/horseradish peroxidase conjugate (Pierce), diluted 1:25000. Detection was undertaken with chemiluminescent reagents (SuperSignal, Pierce) and standard autoradiography.

HSF-1 = test: Western blot HSF-1; assay type: in vivo, Caenorhabditis elegans; settings: ThT treatment
Experimental: as §1, §2

[3] = absence of FUdR, 50 μM, 20° C., 4 independent experiments
[4] = sterile N2 worms, 50 or 100 μM throughout adult life

## Cc1ccc2c(c1)sc(-c1ccc(N(C)C)cc1)[n+]2C.[Cl-] [ThT, 4-(3,6-dimethyl-1,3-benzothiazol-3-ium-2-yl)-N,N-dimethylaniline chloride]
Wildtype (N2) C. elegans; 500 μM
  effect on lifespan at higher doses: appears toxic and significantly shortens lifespan
Wildtype (N2) C. elegans; [3]
  Average increase in median lifespan: 40%
  increase in median lifespan, range over experiments: 30-70%
Wildtype (N2) C. elegans; [4]
  increase in maximal lifespan: 43-78%
  increase in median lifespan: 60%
DA465 [eat-2(ad465)II]
  lifespan of eat-2 mutant (genetic DR model): increased the lifespan
[1]; HE250, 50 μM ThT, scored after 36 h at 25° C.
  paralysis phenotype, continuous exposure and addition after 18 h at restrictive temperature: Prevention of paralysis phenotype
[1]; HE250, 25° C., 36 h, 50 μM ThT, 100 μM curcumin, 100 μM rifampicin
  paralysis phenotype of unc-52 mutant: suppressed paralysis; also recorded: Protection
[2]
  muscle sarcomere structure: prevented the disruption of the muscle sarcomeres
HSP-16.2
  HSP-16.2 protein levels: up-regulated
HSF-1
  HSF-1 protein levels: slight increase
